Tested on: Realskin reconstructed epidermis (filaggrin, marker for epidermal differentiation)
Assay: Epidermal differentiation (filaggrin immunolabelling) in Realskin reconstructed epidermis model
Assay type: cell-based
Settings: incubated from D 20, analysed from D 27
Description: The effects of the combination are evaluated with respect to epidermal differentiation and proliferation in the […] reconstructed epidermis model. […] The epidermises are analysed histologically and by filaggrin (marker for epidermal differentiation) immunolabelling starting from D 27. Filaggrin, which is a late differentiation marker, is a product of degradation of profilaggrin, a high MW phosphoprotein contained in the keratohyalin granules. At the moment the keratinocyte transforms into a corneocyte, the keratohyalin granules disaggregate, and the profillagrin undergoes sequential proteolysis which releases oligomers and then monomers of filaggrin. The results arc illustrated in FIG. 1.

Compound | differentiation (filaggrin immunolabelling) (Adenosine at 10 μM) | delay in differentiation (filaggrin immunolabelling) (Retinol at 250 μM) [%]
Nc1ncnc2c1ncn2[C@@H]1O[C@H](CO)[C@@H](O)[C@H]1O [adenosine] | +11% | 
CC1=C(/C=C/C(C)=C/C=C/C(C)=C/CO)C(C)(C)CCC1 [retinol] |  | −36

Source: patent publication US20100178260A1, “COMPOSITION COMPRISING A RETINOID, AN ADENOSINE-BASED NONPHOSPHATED COMPOUND, AND A SEMICRYSTALLINE POLYMER” (L'OREAL, priority 2009, published 2010)
